Test results from patent publication US9981972B2, “N-hydroxy bicyclic hydantoin carbamates as tools for identification of serine hydrolase targets” (ABIDE THERAPEUTICS, INC., priority 2014, dated 2018).

Columns and labels:
ABHD4 = target: T1, ABHD4 (Mus musculus, UniProt Q8VD66); assay: Inhibition by gel-based competitive ABPP in vivo; conditions: 1-40 mg/kg i.p., 4 h, any tissue examined
T1 construct: from tissue; host or cells: tissues of C57BL6 mice
Method: Compound 26, Compound 34, and Compound 1 were administered across a dose range of 1-40 mg/kg to C57BL6 mice by intraperitoneal injection, and, after 4 hours, animals were sacrificed and tissues harvested for analysis by gel-based ABPP using the FP-Rh probe and the Compound 39 probe.

ABHD6 = target: T2, ABHD6 (Homo sapiens, UniProt Q9BV23); assay: Selectivity analysis by ABPP-SILAC, HeLa cells in situ, FP-biotin; assay type: cell-based; conditions: 2 h in situ, read-out: inhibition of anti-target ABHD6 (ABPP-SILAC)
T2 construct: endogenous in cells; host or cells: HeLa
T2 sequence (Q9BV23 whole entry): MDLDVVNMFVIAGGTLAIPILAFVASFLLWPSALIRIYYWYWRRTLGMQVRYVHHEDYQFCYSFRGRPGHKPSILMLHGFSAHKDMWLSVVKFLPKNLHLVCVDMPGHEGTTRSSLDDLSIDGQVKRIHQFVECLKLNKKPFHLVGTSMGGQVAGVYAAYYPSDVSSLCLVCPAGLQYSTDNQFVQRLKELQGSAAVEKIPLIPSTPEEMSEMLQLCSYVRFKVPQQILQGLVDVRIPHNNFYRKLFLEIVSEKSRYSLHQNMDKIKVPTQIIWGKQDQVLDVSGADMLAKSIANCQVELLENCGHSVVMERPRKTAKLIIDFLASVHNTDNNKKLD
Description: (§1) Competitive ABPP-SILAC (Adibekian, A., et al. J Am Chem Soc, 2012. 134(25): p. 10345-8) combined competitive ABPP (Leung, D., et al. Nat Biotechnol, 2003. 21(6): p. 687-91) with stable isotope labeling of cells (SILAC) (Ong, S. E., et al. Mol Cell Proteomics, 2002. 1(5): p. 376-86), and allowed for precise quantitation of enzyme inhibition by calculating the isotopic ratios of peptides from inhibitor-treated and control cells.
(§2) Assay Overview: The purpose of this assay was to determine the selectivity profile of powder samples of test compounds using stable isotope labeling with amino acids in cell culture (SILAC) ABPP. In this assay, cultured HeLa cells were metabolically labeled with light or heavy amino acids. Light and heavy cells were treated with inhibitor and DMSO, respectively, in situ. Cells were harvested, and proteome fractions were isolated and reacted with the serine-hydrolase-specific activity-based affinity probe fluorophosphonate-biotin (FP-biotin). Light and heavy samples were combined in a 1:1 (w/w) ratio. Biotinylated proteins were enriched, trypsinized, and analyzed by LC/LC-MS/MS (MudPIT) Inhibition of target and anti-target activity was quantified by comparing intensities of light and heavy peptide peaks. […] Proteins not targeted by inhibitors were expected to have a ratio close to 1.
(§3) Sample Preparation. HeLa cells were initially grown for at least eight passages in either light or heavy SILAC DMEM medium supplemented with 10% dialyzed FCS and 1× PenStrep Glutamine in a humidified incubator (37° C., 5% CO2). Light medium was supplemented with 100 μg/mL L-arginine (Sigma) and 100 μg/mL L-lysine (Sigma). Heavy medium was supplemented with 100 μg/mL [13C615N4]-L-Arginine (Isotek) and 100 μg/mL [13C615N2]-L-Lysine (Isotek). […]
(§4) LC-MS/MS analysis. Samples were analyzed by multidimensional liquid chromatography tandem mass spectrometry (MudPIT) using an Agilent 1200-series quaternary pump and Thermo Scientific LTQ Orbitrap Velos ion trap mass spectrometer. […]

MAGL = target: T3, MAGL (Homo sapiens, UniProt Q99685); assay: as above; assay type: cell-based; conditions: 2 h in situ
T3 construct: endogenous in cells; host or cells: HeLa
T3 sequence (Q99685 whole entry): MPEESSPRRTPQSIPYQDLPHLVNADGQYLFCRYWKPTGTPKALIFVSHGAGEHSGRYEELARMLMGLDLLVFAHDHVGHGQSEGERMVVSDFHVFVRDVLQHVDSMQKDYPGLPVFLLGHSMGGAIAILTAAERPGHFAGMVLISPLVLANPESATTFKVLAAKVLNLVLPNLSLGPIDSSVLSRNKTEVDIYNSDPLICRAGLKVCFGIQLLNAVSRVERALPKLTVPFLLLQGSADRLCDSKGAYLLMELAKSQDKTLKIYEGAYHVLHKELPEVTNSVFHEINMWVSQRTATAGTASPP
Description: as §1, §2, §3, §4

human LYPLA1/2 = assay: as above; assay type: cell-based; conditions: 1 μM, 2 h in situ
Description: as §1, §2, §3, §4

LYPLA1/2 = assay: Gel filtration to assess mode of action, HeLa cell lysate; assay type: biochemical, human; conditions: 200 nM or 1000 nM, FP-Rh labeling before and after gel filtration
Method: In this assay, a complex proteome was incubated with test compound and a fraction of the assay mixture was passaged over a Sephadex G-25M column before reaction with FP-Rh and SDS-PAGE analysis as described above.
Protocol Summary: HeLa cell lysate (1 mL of 1 mg/ml in DPBS) was treated with test compound (200 nM or 1000 nM, from 50× stock in DMSO) or DMSO only (no compound control). Test compounds were incubated for 30 minutes at 37° C. An aliquot (50 μL) was removed from each reaction, and the remaining sample was passaged over a Sephadex G-25M desalting column. An aliquot (50 μL, 1 mg/mL protein, eluted in DPBS) was removed, and pre- and post-filtration aliquots were reacted with FP-Rh (50× stock in DMSO; 2 μM final concentration). The reaction was incubated for 30 minutes at 25° C., quenched with 16 μL 4× SDS-PAGE loading buffer (reducing), separated by SDS-PAGE and visualized by in-gel fluorescent scanning. The percentage activity remaining was determined by measuring the integrated optical density of the LYPLA1/2 bands (quantified together) relative to a DMSO-only (no compound) control. The percent recovery was calculated by comparing percent inhibition before and after gel filtration for each test compound concentration.

T1 sequence (Q8VD66 whole entry): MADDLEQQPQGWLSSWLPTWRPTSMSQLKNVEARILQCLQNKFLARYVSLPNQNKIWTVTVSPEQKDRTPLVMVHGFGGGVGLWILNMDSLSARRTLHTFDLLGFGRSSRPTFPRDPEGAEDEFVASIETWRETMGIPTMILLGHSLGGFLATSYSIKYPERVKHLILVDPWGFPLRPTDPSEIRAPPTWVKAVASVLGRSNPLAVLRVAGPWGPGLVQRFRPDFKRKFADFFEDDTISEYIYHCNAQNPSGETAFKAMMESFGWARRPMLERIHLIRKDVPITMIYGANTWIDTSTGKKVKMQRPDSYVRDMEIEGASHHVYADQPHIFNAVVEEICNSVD

inhibition at 1 µM (ABHD6) [%] | inhibition at 1 µM (MAGL) [%] | Compound | blockade of ABHD4 in vivo (ABHD4) | inhibition of human LYPLA1/2 (ABPP-SILAC) (human LYPLA1/2) [%] | binding mode (gel filtration) (LYPLA1/2)
– | – | O=C(ON1C(=O)C2CN(Cc3ccc(Oc4ccccc4)cc3)CCN2C1=O)N1CCOCC1 (centres unmarked) [Compound 34, 1,3-dioxo-7-(4-phenoxybenzyl)hexahydroimidazo[1,5-a]pyrazin-2(3H)-yl morpholine-4-carboxylate] | did not block the activity of ABHD4 in any tissue examined | – | –
> 90 | ~40 | O=C(ON1C(=O)C2CN(C(=O)N3CCOCC3)CCN2C1=O)N1CCC(CCc2ccc(Cl)cc2)CC1 (centres unmarked) [Compound 1, 7-(morpholine-4-carbonyl)-1,3-dioxohexahydroimidazo[1,5-a]pyrazin-2(3H)-yl 4-(4-chloro-phenethyl)piperidine-1-carboxylate] | – | > 90 | irreversible inhibitor
